Results: patent US8377948B2, “Antitumor agents and methods of their use” (The Ohio State University Research Foundation, priority 2004, dated 2013)

tested on: PC-3 cells; assay: MTT cell viability assay, PC-3 cells in 10% FBS medium; assay type: cell-based, human; settings: Homo sapiens, PC-3, 48 h, RPMI 1640 with 10% FBS, means ± S.D. (n = 6)
Procedure: PC-3 (p53−/−) human androgen-nonresponsive prostate cancer cells were purchased from the American Type Tissue Collection (Manassas, Va.). Cells were cultured in RPMI 1640 medium (Gibco, Grand Island, N.Y.) supplemented with 10% fetal bovine serum (FBS; Gibco) at 37° C. in a humidified incubator containing 5% CO2.
Effect of the test agent on cell viability was assessed by the MTT {[3-(4,5-dimethylthiazol-2-yl)-2,5-diphenyl-2H-tetrazolium bromide]} assay in 96-well, flat-bottomed plates, in which 8,000 PC-3 or DU-145 cells/well were seeded. Cells were exposed to the test agent at the indicated concentrations, in six replicates, in 10% FBS-supplemented-RPMI-1640 medium at 37° C. in 5% CO2 for 48 hr. The medium was removed and replaced by 150 μL of 0.5 mg/mL of MTT in RPMI-1640 medium, and cells were incubated in the CO2 incubator at 37° C. for 2 h. Supernatants were removed from the wells, and the reduced MTT dye was solubilized with 200 μL/well DMSO. Absorbance was determined on a plate reader at 570 nm.
All compounds were evaluated for their ability to induce apoptotic death in human androgen-independent PC-3 prostate cancer in RPMI 1640 medium containing 10% fetal bovine serum (FBS). For representative compounds tested in DU-145 and LNCaP prostate cancer cells, the IC50 values for inhibiting cell proliferation were similar in these three cell lines irrespective of differences in androgen sensitivity, PTEN mutation, the functional status of p53 and Rb, and other biomarkers.

SMILES | IC50
COc1cc2nc(N3CCN(C(=O)c4ccc(Cl)cc4)CC3)nc(N)c2cc1OC [Compound 1, [4-(4-Amino-6,7-dimethoxy-quinazolin-2-yl)-piperazin-1-yl]-(4-chloro-phenyl)-methanone] | 60 ± 8 µM
COc1cc2nc(N3CCN(C(=O)c4ccc(C#N)cc4)CC3)nc(N)c2cc1OC [Compound 2, 4-[4-(4-Amino-6,7-dimethoxy-quinazolin-2-yl)-piperazine-1-carbonyl]-benzonitrile] | 68 ± 6 µM
COc1cc2nc(N3CCN(C(=O)c4cccc(C#N)c4)CC3)nc(N)c2cc1OC [Compound 4, 3-[4-(4-Amino-6,7-dimethoxy-quinazolin-2-yl)-piperazine-1-carbonyl]-benzo-nitrile] | 82 ± 5 µM
COc1cc2nc(N3CCN(C(=O)c4ccc([N+](=O)[O-])cc4)CC3)nc(N)c2cc1OC [Compound 5, [4-(4-Amino-6,7-dimethoxy-quinazolin-2-yl)-piperazin-1-yl]-(4-nitro-phenyl)-methanone] | 75 ± 11 µM
COc1cc2nc(N3CCN(C(=O)c4cccc5ccccc45)CC3)nc(N)c2cc1OC [Compound 7, [4-(4-Amino-6,7-dimethoxy-quinazolin-2-yl)-piperazin-1-yl]-naphthalen-1-yl-methanone] | 59 ± 4 µM
COc1cc2nc(N3CCN(C(=O)c4ccc(N)cc4)CC3)nc(N)c2cc1OC [Compound 8, [4-(4-Amino-6,7-dimethoxy-quinazolin-2-yl)-piperazin-1-yl]-(4-amino-phenyl)-methanone] | > 100 µM
COc1cc2nc(N3CCN(C(=O)c4ccc(C(F)(F)F)cc4)CC3)nc(N)c2cc1OC [Compound 10, [4-(4-Amino-6,7-dimethoxy-quinazolin-2-yl)-piperazin-1-yl]-(4-trifluoromethyl-phenyl)-methanone] | > 100 µM
COc1cc2nc(N3CCN(S(=O)(=O)c4ccc(Cl)cc4)CC3)nc(N)c2cc1OC [Compound 11, 2-[4-(4-Chloro-benzonesulfonyl)-piperazin-1-yl]-6,7-dimethoxy-quinazolin-4-yl-amine] | 23 ± 3 µM
COc1cc2nc(N3CCN(S(=O)(=O)c4ccc(I)cc4)CC3)nc(N)c2cc1OC [Compound 13, 2-[4-(4-Iodo-benzenesulfonyl)-piperazin-1-yl]-6,7-dimethoxy-quinazolin-4-yl-amine] | 15 ± 2 µM
COc1cc2nc(N3CCN(S(=O)(=O)c4ccccc4[N+](=O)[O-])CC3)nc(N)c2cc1OC [Compound 15, 6,7-Dimethoxy-2-[4-(2-nitro-benzenesulfonyl)-piperazin-1-yl]-quinazolin-4-yl-amine] | 35 ± 4 µM
COc1cc2nc(N3CCN(S(=O)(=O)c4ccc(C)cc4)CC3)nc(N)c2cc1OC [Compound 18, 6,7-Dimethoxy-2-[4-(toluene-4-sulfonyl)-piperazin-1-yl]-quinazolin-4-ylamine] | 30 ± 2 µM
COc1cc2nc(N3CCN(S(=O)(=O)c4ccc(C(F)(F)F)cc4)CC3)nc(N)c2cc1OC [Compound 19, 6,7-Dimethoxy-2-[4-(4-trifluoromethyl-benzenesulfonyl)-piperazin-1-yl]-quinazolin-4-yl-amine] | 27 ± 3 µM
COc1cc2nc(N3CCN(S(=O)(=O)c4ccc(S(C)(=O)=O)cc4)CC3)nc(N)c2cc1OC [Compound 22, 2-[4-(4-Methanesulfonyl-benzenesulfonyl)-piperazin-1-yl]-6,7-dimethoxy-quinazolin-4-ylamine] | 17 ± 3 µM
COc1cc2nc(N3CCN(S(=O)(=O)c4cc(C(=O)O)c(Cl)cc4Cl)CC3)nc(N)c2cc1OC [Compound 29, 5-[4-(4-Amino-6,7-dimethoxy-quinazolin-2-yl)-piperazine-1-sulfonyl]-2,4-dichloro-benzoic acid] | 52 ± 6 µM
COc1cc2nc(N3CCN(S(=O)(=O)c4ccc5ccccc5c4)CC3)nc(N)c2cc1OC [Compound 31, 6,7-Dimethoxy-2-[4-(naphthalene-2-sulfonyl)-piperazin-1-yl]-quinazolin-4-yl-amino] | 15 ± 2 µM
COc1cc2nc(N3CCN(S(=O)(=O)c4ccc(-c5cc6ccccc6c6ccccc56)cc4)CC3)nc(N)c2cc1OC [Compound 35, 6,7-Dimethoxy-2-[4-(4-phenanthren-9-yl-benzenesulfonyl)-piperazin-1-yl]-quinazolin-4-ylamine] | 4 to 5 µM

The next lines start with the values.

IC50 | SMILES
63 ± 6 µM | COc1cc2nc(N3CCN(C(=O)OCc4ccccc4)CC3)nc(N)c2cc1OC [Compound 3, 4-(4-Amino-6,7-dimethoxy-quinazolin-2-yl)-piperazine-1-carboxylic acid benzyl ester]
71 ± 8 µM | COc1ccc(C(=O)N2CCN(c3nc(N)c4cc(OC)c(OC)cc4n3)CC2)cc1OC [Compound 6, [4-(4-Amino-6,7-dimethoxy-quinazolin-2-yl)-piperazin-1-yl]-(3,4-dimethoxy-phenyl)-methanone]
47 ± 6 µM | COc1cc2nc(N3CCN(C(=O)c4ccc(C(C)(C)C)cc4)CC3)nc(N)c2cc1OC [Compound 9, [4-(4-Amino-6,7-dimethoxy-quinazolin-2-yl)-piperazin-1-yl]-(4-tert-butyl-phenyl)-methanone]
20 ± 2 µM | COc1cc2nc(N3CCN(S(=O)(=O)c4ccc(Br)cc4)CC3)nc(N)c2cc1OC [Compound 12, 2-[4-(4-Bromo-benzenesulfonyl)-piperazin-1-yl]-6,7-dimethoxy-quinazolin-4-yl-amine]
25 ± 3 µM | COc1cc2nc(N3CCN(S(=O)(=O)c4ccc(Cl)s4)CC3)nc(N)c2cc1OC [Compound 14, 2-[4-(5-Chloro-thiophene-2-sulfonyl)-piperazin-1-yl]-6,7-dimethoxy-quinazolin-4-ylamine]
32 ± 5 µM | COc1cc2nc(N3CCN(S(=O)(=O)c4cccc([N+](=O)[O-])c4)CC3)nc(N)c2cc1OC [Compound 16, 6,7-Dimethoxy-2-[4-(3-nitro-benzenesulfonyl)-piperazin-1-yl]-quinazolin-4-yl-amine]
36 ± 3 µM | COc1cc2nc(N3CCN(S(=O)(=O)c4ccc([N+](=O)[O-])cc4)CC3)nc(N)c2cc1OC [Compound 17, 6,7-Dimethoxy-2-[4-(4-nitro-benzenesulfonyl)-piperazin-1-yl]-quinazolin-4-yl-amine]
39 ± 4 µM | COc1ccc(S(=O)(=O)N2CCN(c3nc(N)c4cc(OC)c(OC)cc4n3)CC2)cc1 [Compound 20, 6,7-Dimethoxy-2-[4-(4-methoxy-benzenesulfonyl)-piperazin-1-yl]-quinazolin-4-yl-amine]
25 ± 2 µM | COc1cc2nc(N3CCN(S(=O)(=O)c4ccc(OC(F)(F)F)cc4)CC3)nc(N)c2cc1OC [Compound 21, 6,7-Dimethoxy-2-[4-(4-trifluoromethoxy-benzenesulfonyl)-piperazin-1-yl]-quinazolin-4-yl-amine]
4 to 5 µM | COc1cc2nc(N3CCN(S(=O)(=O)c4ccc(C(C)(C)C)cc4)CC3)nc(N)c2cc1OC [Compound 23, 2-[4-(4-tert-Butyl-benzenesulfonyl)-piperazin-1-yl]-6,7-dimethoxy-quinazolin-4-ylamine]
53 ± 4 µM | COc1cc2nc(N3CCN(S(=O)(=O)c4cccc(C(=O)O)c4)CC3)nc(N)c2cc1OC [Compound 24, 3-[4-(4-Amino-6,7-dimethoxy-quinazolin-2-yl)-piperazine-1-sulfonyl]-benzoic acid]
60 ± 7 µM | COc1cc2nc(N3CCN(S(=O)(=O)c4cc(Cl)ccc4Cl)CC3)nc(N)c2cc1OC [Compound 26, 2-[4-(2,5-Dichloro-benzenesulfonyl)-piperazin-1-yl]-6,7-dimethoxy-quinazolin-4-ylamine]
67 ± 5 µM | COc1cc2nc(N3CCN(S(=O)(=O)c4ccc(N)cc4N)CC3)nc(N)c2cc1OC [Compound 27, 4-[4-(4-Amino-6,7-dimethoxy-quinazolin-2-yl)-piperazine-1-sulfonyl]-benzene-1,3-diamine]
56 ± 4 µM | COc1cc2nc(N3CCN(S(=O)(=O)c4cc(C(=O)O)c(Cl)cc4F)CC3)nc(N)c2cc1OC [Compound 28, 5-[4-(4-Amino-6,7-dimethoxy-quinazolin-2-yl)-piperazine-1-sulfonyl]-2-chloro-4-fluoro-benzoic acid]
14 ± 2 µM | COc1cc2nc(N3CCN(S(=O)(=O)c4cccc5ccccc45)CC3)nc(N)c2cc1OC [Compound 30, 6,7-Dimethoxy-2-[4-(naphthalene-1-sulfonyl)-piperazin-1-yl]-quinazolin-4-yl-amine]
29 ± 4 µM | COc1cc2nc(N3CCN(S(=O)(=O)c4cccc5c(N(C)C)cccc45)CC3)nc(N)c2cc1OC [Compound 32, 2-[4-(5-Dimethylamino-naphthalene-1-sulfonyl)-piperazin-1-yl]-6,7-dimethoxy-quinazolin-4-ylamine]
3.4 ± 0.4 µM | COc1cc2nc(N3CCN(S(=O)(=O)c4ccc(-c5ccc(C)cc5)cc4)CC3)nc(N)c2cc1OC [Compound 36, 6,7-Dimethoxy-2-[4-(4′-methyl-biphenyl-4-sulfonyl)-piperazin-1-yl]-quinazolin-4-yl-amine]

same assay, conditions: RPMI 1640 with 10% FBS, 48 h, means ± S.D. (n = 6)

SMILES | IC50
COc1cc2nc(N3CCN(S(=O)(=O)c4ccc(C(C)(C)C)cc4)CC3)nc(N)c2cc1OC [Compound 23, 2-[4-(4-tert-Butyl-benzenesulfonyl)-piperazin-1-yl]-6,7-dimethoxy-quinazolin-4-ylamine] | 4.1 ± 0.7 µM
COc1cc2nc(N3CCN(S(=O)(=O)c4c(C(C)C)cc(C(C)C)cc4C(C)C)CC3)nc(N)c2cc1OC [Compound 34, 6,7-Dimethoxy-2-[4-(2,4,6-triisopropyl-benzonesulfonyl)-piperazin-1-yl]-quinazolin-4-yl-amine] | 24 ± 3 µM
COc1cc2nc(N3CCN(S(=O)(=O)c4ccc(-c5cc6ccccc6c6ccccc56)cc4)CC3)nc(N)c2cc1OC [Compound 35, 6,7-Dimethoxy-2-[4-(4-phenanthren-9-yl-benzenesulfonyl)-piperazin-1-yl]-quinazolin-4-ylamine] | 5.2 ± 0.9 µM
